What was measured:
[1] = system: Bone marrow cells from WT, TLR7KO, and TLR9KO mice; experiment: TLR9 dependency: IFN-I production in bone marrow cells, B16-Blue sensor cell bioassay; format: cell-based, mouse; conditions: R848 1 ug/mL; 24 hours
From the text: (§1) The content of each lipid per 100 mass % of lipids constituting the lipid particles is as follows: DOTAP: 50 mass %, DPPC: 19.5 mass %, cholesterol: 30 mass %, and DSPE-PEG (2 k (PEG chain length))-OMe: 0.5 mass % or 3.0 mass %. The ratio (N/P) of the number of nitrogen atoms (N) in the lipids constituting the lipid particles to the number of phosphorus atoms (D35) (P) in the nucleic acid was set to 3. A D35-containing aqueous solution and a lipid-containing ethanol solution were mixed using the NanoAssemblr (produced by Precision NanoSystems) to obtain lipid nanoparticles, which were then dialyzed against a 5% glucose aqueous solution. In this Test Example and the following Test Examples, the D35-containing lipid nanoparticles obtained here were used.
(§2) Bone marrow cells were prepared from each of WT, TLR7KO, and TLR9KO mice, and stimulated with R848 (TLR7/8 agonist; medium final concentration: 1 ug/mL), D35 (TLR9 agonist; medium final concentration: 10 uM=63.4 ug/mL), and D35-containing lipid nanoparticles (medium final concentration in terms of D35: 1 μg/mL), followed by culturing for 24 hours. Then, the amounts of IFN-I and IL-6 in the culture supernatant were quantified by a biological activity measurement method using murine type I IFNs sensor cells (B16-Blue IFN-α/a cells) and by the usual ELISA method, respectively.

[2] = system: Bone marrow cells from WT, TLR7KO, and TLR9KO mice; experiment: TLR9 dependency: IL-6 production in bone marrow cells, ELISA; format: cell-based, mouse; conditions: R848 1 ug/mL, D35 10 uM=63.4 ug/mL, nanoparticles 1 μg/mL in terms of D35, 24 hours; for IL-6 production in TLR7KO: TLR7KO bone marrow cells; for IL-6 production in TLR9KO: TLR9KO bone marrow cells
From the text: as §1, §2

[3] = system: MC38 mouse colorectal cancer-derived tumor; experiment: MC38 mouse colorectal cancer-derived tumor model, tumor size; format: in vivo; conditions: Test Example 6, FIG. 6: intratumoral, days 9, 11, 13, 15, 17; 4.5 ug/shot D35; effect on days 17 and 21
Experimental: On days 9, 11, 13, 15, and 17 after subcutaneous transplantation of MC38 (1×10^6 cells), a pharmaceutical agent (D35 or D35-containing lipid nanoparticles (DSPE-PEG-OMe content: 0.5 mass %)) was intratumorally administered 5 times in total. Then, the tumor size was measured. The amount of D35 nucleic acid administered at one time was adjusted to 4.5 ug/shot.
On days 9, 11, 13, 15, and 17 after subcutaneous transplantation of MC38 (1×10^6 cells), D35-containing lipid nanoparticles (DSPE-PEG-OMe content: 0.5 mass %) were intratumorally administered 5 times in total. Then, the tumor size was measured. Further, in order to deplete CD8T cells, anti-CD8a antibody (100 ug/shot) or control antibody (100 ug/shot) was intraperitoneally administered on days 6 and 13 after subcutaneous transplantation. The amount of D35 nucleic acid administered at one time was adjusted to 4.5 ug/shot.
On days 9, 11, 13, 15, and 17 after subcutaneous transplantation of MC38 (1×10^6 cells), a pharmaceutical agent (D35 or D35-containing lipid nanoparticles (DSPE-PEG-OMe content: 0.5 mass %)) was administered intravenously 5 times in total. Then, the tumor size was measured. […]
On days 9, 11, 13, 15, and 17 after subcutaneous transplantation of MC38 (1×10^6 cells), D35-containing lipid nanoparticles (DSPE-PEG-OMe content: 0.5 mass %) were administered intravenously 5 times in total. Then, the tumor size was measured. […]

Compound | IFN-I production [1] | IL-6 production in TLR7KO [2] | IL-6 production in TLR9KO [2] | tumor size [3]
CCOCc1nc2c(N)nc3ccccc3c2n1CC(C)(C)O [R848] | very weak | disappeared | did not disappear | –
G_G_TGCATCGATGCAGGGG_G_G (DNA GGTGCATCGATGCAGGGGGG; DNA, linkages s2 o15 s2 (s phosphorothioate, o phosphodiester), methylation of C not given here; formulated in lipid nanoparticles) [D35, A-type CpG oligodeoxynucleotide, TLR9 agonist, not complexed with lipids] | – | did not disappear | disappeared almost completely | No effect was observed

Source: patent US20210261964A1, “LIPID PARTICLE CONTAINING A-TYPE CpG OLIGODEOXYNUCLEOTIDE” (THE RESEARCH FOUNDATION FOR MICROBIAL DISEASES OF OSAKA …, priority 2018, published 2021)
